These results are taken from patent US20120142667A1, “PYRIMIDINE DERIVATIVES AS ZAP-70 INHIBITORS” (priority 2009, published 2012).

One test concerns the target T1, ZAP-70 (Homo sapiens, UniProt P43403).
T1 construct: endogenous in cells; host or cells: cell lysate
T1 sequence (P43403 1-619): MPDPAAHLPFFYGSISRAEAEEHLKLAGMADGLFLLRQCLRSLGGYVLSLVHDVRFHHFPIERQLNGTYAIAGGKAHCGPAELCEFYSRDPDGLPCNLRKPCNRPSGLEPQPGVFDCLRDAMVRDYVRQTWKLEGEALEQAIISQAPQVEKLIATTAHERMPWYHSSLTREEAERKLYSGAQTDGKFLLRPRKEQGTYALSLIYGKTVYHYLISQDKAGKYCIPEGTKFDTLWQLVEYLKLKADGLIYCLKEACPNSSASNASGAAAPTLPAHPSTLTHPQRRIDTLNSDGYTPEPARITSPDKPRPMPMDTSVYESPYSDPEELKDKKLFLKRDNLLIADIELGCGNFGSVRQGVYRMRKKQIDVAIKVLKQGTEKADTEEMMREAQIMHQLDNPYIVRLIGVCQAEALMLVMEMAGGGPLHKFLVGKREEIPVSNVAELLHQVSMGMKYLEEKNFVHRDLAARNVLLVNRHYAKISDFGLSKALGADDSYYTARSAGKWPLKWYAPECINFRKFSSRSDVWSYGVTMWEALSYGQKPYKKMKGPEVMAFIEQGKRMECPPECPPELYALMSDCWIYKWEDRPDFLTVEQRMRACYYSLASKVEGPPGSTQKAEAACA
The test can be described thus: ZAP-70 kinobeads assay. Type of test: binding. To be noted: cell lysate. Put shortly: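 Competition binding: compounds at various concentrations incubated with cell lysate plus affinity matrix bearing immobilized aminopyrido-pyrimidine ligand 24. ZAP-70 retained on beads eluted and quantified by specific-antibody dot blot with infrared detection.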

The subject of test [1] is Calcium Ion Release in Cells. The test can be described thus: calcium release assay (measurement of calcium ion release in cells). Type of test: cell-based. To be noted: calcium release assay as described in WO-A 2009/080638.

pIC50: −log10 of the molar value. Counter-ions that a name gives are not always drawn.

What is called pIC50 is the IC50 on a negative log10 scale, so that one unit is a factor of ten. Regarding `COc1ccc(Nc2nc(Nc3ccc(OCCO)cc3F)ncc2Cl)c(NS(C)(=O)=O)c1` [Example 55, N-(2-(5-chloro-2-(2-fluoro-4-(2-hydroxyethoxy)phenylamino)pyrimidin-4-ylamino)-5-methoxyphenyl)methanesulfonamide], the figures for the pIC50 (against ZAP-70; in test [1]) were 6.00 to 7.00 and at least 6.00, respectively.
Consider `COc1ccc(Nc2nc(Nc3cccc(OCCCO)c3C)ncc2Cl)c(NS(C)(=O)=O)c1` [Example 94, N-(2-((5-chloro-2-((3-(3-hydroxypropoxy)-2-methylphenyl)amino)pyrimidin-4-yl)amino)-5-methoxyphenyl)methanesulfonamide], for which the figures for the pIC50 (against ZAP-70; in test [1]) were 6.00 to 7.00 and at least 6.00, respectively.
The corresponding values for `COc1ccc(Nc2nc(Nc3ccncc3C)ncc2Cl)c(NS(C)(=O)=O)c1` [Example 70, N-(2-(5-chloro-2-(3-methylpyridin-4-ylamino)pyrimidin-4-ylamino)-5-methoxyphenyl)methanesulfonamide] are at least 7.00 and at least 6.00.
As for `COc1ccc(Nc2nc(Nc3cc(OC)c(OCCO)cc3OC)ncc2Cl)c(NS(C)(=O)=O)c1` [Example 110, N-(2-((5-chloro-2-((4-(2-hydroxyethoxy)-2,5-dimethoxyphenyl)amino)pyrimidin-4-yl)amino)-5-methoxyphenyl)methanesulfonamide], the figures for the pIC50 (against ZAP-70; in test [1]) were at least 7.00 and at least 6.00, respectively.
The matching figures for `COc1ccc(Nc2nc(Nc3cnc(C)cc3C)ncc2Cl)c(NS(C)(=O)=O)c1` [Example 71, N-(2-(5-chloro-2-(4,6-dimethylpyridin-3-ylamino)pyrimidin-4-ylamino)-5-methoxyphenyl)methanesulfonamide]: at least 7.00 and at least 6.00.
Take `COc1ccc(Nc2nc(Nc3cccc(OCC(=O)N4CCC4)c3C)ncc2Cl)c(NS(C)(=O)=O)c1` [Example 5, N-(2 (2 (3 (2 (azetidin-1-yl)-2-oxoethoxy)-2-methylphenylamino)-5-chloropyrimidin-4-ylamino)-5-methoxyphenyl)methanesulfonamide]: the values for the pIC50 (against ZAP-70; in test [1]) were at least 7.00 and at least 6.00, respectively.
As for `COc1ccc(Nc2nc(Nc3ccc(OCCO)cc3C)ncc2Cl)c(NS(C)(=O)=O)c1` [Example 73, N-(2-(5-chloro-2-(4-(2-hydroxyethoxy)-2-methylphenylamino)pyrimidin-4-ylamino)-5-methoxyphenyl)methanesulfonamide], the pIC50 was at least 7.00 against ZAP-70 and at least 6.00 in test [1].
The corresponding values for `COc1ccc(Nc2nc(Nc3cc(OC)c(CC(N)=O)cc3OC)ncc2Cl)c(NS(C)(=O)=O)c1` [Example 107, 2-(4-((5-chloro-4-((4-methoxy-2-(methylsulfonamido)phenyl)amino)pyrimidin-2-yl)amino)-2,5-dimethoxyphenyl)acetamide] are 6.00 to 7.00 and at least 6.00.
The corresponding values for `COc1ccc(Nc2nc(Nc3cc(OC)c(CCO)cc3OC)ncc2Cl)c(NS(C)(=O)=O)c1` [Example 105, N-(2-((5-chloro-2-((4-(2-hydroxyethyl)-2,5-dimethoxyphenyl)amino)pyrimidin-4-yl)amino)-5-methoxyphenyl)methanesulfonamide] are 6.00 to 7.00 and at least 6.00.
The corresponding values for `COc1ccc(Nc2nc(Nc3cc(OCCO)ccc3OC)ncc2F)c(NS(C)(=O)=O)c1` [Example 106, N-(2-(5-fluoro-2-(5-(2-hydroxyethoxy)-2-methoxyphenylamino)pyrimidin-4-ylamino)-5-methoxyphenyl)methanesulfonamide] are 6.00 to 7.00 and at least 6.00.
Consider `COc1ccc(Nc2nc(Nc3ccncc3OC)ncc2Cl)c(NS(C)(=O)=O)c1` [Example 76, N-(2-(5-chloro-2-(3-methoxypyridin-4-ylamino)pyrimidin-4-ylamino)-5-methoxyphenyl)methanesulfonamide], for which the pIC50 on ZAP-70 is 6.00 to 7.00; in test [1] it was at least 6.00.
For `COc1ccc(Nc2nc(Nc3cc(OCCO)ccc3F)ncc2Cl)c(NS(C)(=O)=O)c1` [Example 64, N-(2-(5-chloro-2-(2-fluoro-5-(2-hydroxyethoxy)phenylamino)pyrimidin-4-ylamino)-5-methoxyphenyl)methanesulfonamide], the values for the pIC50 (against ZAP-70; in test [1]) were 6.00 to 7.00 and at least 6.00, respectively.
Take `COc1ccc(Nc2nc(Nc3cc(OCCCO)ccc3C)ncc2Cl)c(NS(C)(=O)=O)c1` [Example 87, N-(2-(5-chloro-2-(5-(3-hydroxypropoxy)-2-methylphenylamino)pyrimidin-4-ylamino)-5-methoxyphenyl)methanesulfonamide]: the pIC50 is 6.00 to 7.00 against ZAP-70 and at least 6.00 in test [1].
As for `COc1ccc(Nc2nc(Nc3ccnc(C)c3C)ncc2Cl)c(NS(C)(=O)=O)c1` [Example 80, N-(2-(5-chloro-2-(2,3-dimethylpyridin-4-ylamino)pyrimidin-4-ylamino)-5-methoxyphenyl)methanesulfonamide], the pIC50 against ZAP-70 is 6.00 to 7.00; in test [1], at least 6.00.
The matching figures for `COc1ccc(Nc2nc(Nc3ccncc3F)ncc2Cl)c(NS(C)(=O)=O)c1` [Example 72, N-(2-(5-chloro-2-(3-fluoropyridin-4-ylamino)pyrimidin-4-ylamino)-5-methoxyphenyl)methanesulfonamide]: 6.00 to 7.00 and at least 6.00.
The matching figures for `COc1ccc(Nc2nc(Nc3cccnc3C)ncc2Cl)c(NS(C)(=O)=O)c1` [Example 77, N-(2-(5-chloro-2-(2-methylpyridin-3-ylamino)pyrimidin-4-ylamino)-5-methoxyphenyl)methanesulfonamide]: 6.00 to 7.00 and at least 6.00.
In the case of `COc1ccc(Nc2nc(Nc3cccc(CCCO)c3C)ncc2Cl)c(NS(C)(=O)=O)c1` [Example 97, N-(2-((5-chloro-2-((3-(3-hydroxypropyl)-2-methylphenyl)amino)pyrimidin-4-yl)amino)-5-methoxyphenyl)methanesulfonamide], the pIC50 at ZAP-70 was at least 7.00; in test [1] it was at least 6.00.
As for `COc1ccc(C)c(Nc2ncc(Cl)c(Nc3ccc(OC)cc3NS(C)(=O)=O)n2)c1` [Example 57, N-(2-(5-chloro-2-(5-methoxy-2-methylphenylamino)pyrimidin-4-ylamino)-5-methoxyphenyl)methanesulfonamide hydrochloride], the pIC50 at ZAP-70 was 6.00 to 7.00; in test [1] it was at least 6.00.
For `COc1ccc(Nc2nc(Nc3cc(OCCCN4CCCCC4)ccc3OC)ncc2Cl)c(NS(C)(=O)=O)c1` [Example 2, N-(2-(5-chloro-2-(2-methoxy-5-(3-(piperidin-1-yl)propoxy)phenylamino)pyrimidin-4-ylamino)-5-methoxyphenyl)methanesulfonamide], the pIC50 is at least 7.00 on ZAP-70 and at least 6.00 in test [1].
The matching figures for `COc1ccc(Nc2nc(Nc3cccc(OCC(C)(C)O)c3C)ncc2Cl)c(NS(C)(=O)=O)c1` [Example 95, N-(2-((5-chloro-2-((3-(2-hydroxy-2-methylpropoxy)-2-methylphenyl)amino)pyrimidin-4-yl)amino)-5-methoxyphenyl)methanesulfonamide]: at least 7.00 and at least 6.00.
The corresponding values for `COc1ccc(OC)c(Nc2ncc(Cl)c(Nc3ccccc3NS(C)(=O)=O)n2)c1` [Example 16, N-(2-(5-chloro-2-(2,5-dimethoxyphenylamino)pyrimidin-4-ylamino)phenyl)methanesulfonamide hydrochloride] are 6.00 to 7.00 and at least 6.00.
On to `COc1ccc(Nc2nc(Nc3cnc(OC)cc3C)ncc2Cl)c(NS(C)(=O)=O)c1` [Example 74, N-(2-(5-chloro-2-(6-methoxy-4-methylpyridin-3-ylamino)pyrimidin-4-ylamino)-5-methoxyphenyl)methanesulfonamide], for which the pIC50 at ZAP-70 is 6.00 to 7.00; in test [1], at least 6.00.
The corresponding values for `COc1ccc(Nc2nc(Nc3cc(CCC(N)=O)ccc3OC)ncc2Cl)c(NS(C)(=O)=O)c1` [Example 113, 3-(3-(5-chloro-4-(4-methoxy-2-(methylsulfonamido)phenylamino)pyrimidin-2-ylamino)-4-methoxyphenyl)propanamide] are 6.00 to 7.00 and at least 6.00.
`COc1ccc(Nc2nc(Nc3cnc(OCCO)cc3OC)ncc2Cl)c(NS(C)(=O)=O)c1` [Example 83, N-(2-(5-chloro-2-(6-(2-hydroxyethoxy)-4-methoxypyridin-3-ylamino)pyrimidin-4-ylamino)-5-methoxyphenyl)methanesulfonamide]: the pIC50 was at least 7.00 against ZAP-70 and at least 6.00 in test [1].
As for `COc1ccc(Nc2nc(Nc3cc(OC)c(OC)cc3C)ncc2Cl)c(NS(C)(=O)=O)c1` [Example 37, N-(2-(5-chloro-2-(4,5-dimethoxy-2-methylphenylamino)pyrimidin-4-ylamino)-5-methoxyphenyl)methanesulfonamide], the pIC50 against ZAP-70 was at least 7.00; in test [1], at least 6.00.
As for `COc1ccc(Nc2nc(Nc3cccc(OCC(C)O)c3C)ncc2Cl)c(NS(C)(=O)=O)c1` (stereo not shown) [Example 93, N-(2-((5-chloro-2-((3-(2-hydroxypropoxy)-2-methylphenyl)amino)pyrimidin-4-yl)amino)-5-methoxyphenyl)methanesulfonamide], the pIC50 on ZAP-70 is 6.00 to 7.00; in test [1] it was at least 6.00.
